Results reported in ChEMBL document CHEMBL1138899, “Acyclic nucleoside analogues as inhibitors of Plasmodium falciparum dUTPase” (J Med Chem, 2006).

Key:
[1] = target: T1, dUTP pyrophosphatase (Plasmodium falciparum 3D7, UniProt Q8II92); assay: Inhibition of Plasmodium falciparum dUTPase
T1 sequence (Q8II92 whole entry): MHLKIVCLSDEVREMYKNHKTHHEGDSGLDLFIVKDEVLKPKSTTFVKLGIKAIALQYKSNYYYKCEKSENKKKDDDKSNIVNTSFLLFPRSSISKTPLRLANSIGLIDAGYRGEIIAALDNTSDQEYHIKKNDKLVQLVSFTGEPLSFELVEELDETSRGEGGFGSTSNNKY

[2] = tested on: Plasmodium falciparum; assay: Antiplasmodial activity against Plasmodium falciparum; assay type: functional, organism-based
[3] = tested on: L6; assay: Cytotoxicity against rat L6 cells; assay type: functional, cell-based
[4] = target: T2, Deoxyuridine 5'-triphosphate nucleotidohydrolase, mitochondrial (Homo sapiens, UniProt P33316); assay: Inhibition of human recombinant dUTPase
T2 sequence (P33316 whole entry): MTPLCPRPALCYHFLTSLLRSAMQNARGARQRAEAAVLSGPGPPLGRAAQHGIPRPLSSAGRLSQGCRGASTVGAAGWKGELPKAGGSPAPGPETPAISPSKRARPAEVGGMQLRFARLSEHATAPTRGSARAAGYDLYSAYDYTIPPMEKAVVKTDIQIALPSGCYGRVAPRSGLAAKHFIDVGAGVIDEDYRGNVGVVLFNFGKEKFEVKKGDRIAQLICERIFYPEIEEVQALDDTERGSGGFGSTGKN

[5] = target: T3, dUTP pyrophosphatase (Plasmodium falciparum 3D7) (UniProt Q8II92); assay: Selectivity index, human dUTPase/Plasmodium falciparum dUTPase
T3 sequence (whole entry): T1 sequence (Q8II92 whole entry)

[6] = Intrinsic clearance in human liver microsome; assay type: ADME; conditions: liver microsomes
[7] = Stability in simulated gastric fluid after 0.2 mins; assay type: ADME; conditions: read-out: Stability

| SMILES | Ki [1] | IC50 [2] | IC50 [3] | Ki [4] | Selectivity index [5] | microsomal CLint [6] | remaining at 12 s [7] |
| --- | --- | --- | --- | --- | --- | --- | --- |
| O=c1ccn(CC(CCO)COC(c2ccccc2)(c2ccccc2)c2ccccc2)c(=O)[nH]1 (centres undefined) | 0.9 µM | 1.9 µM | 57 µM | 21 µM | – | – | – |
| O=c1ccn(C/C=C/COC(c2ccccc2)(c2ccccc2)c2ccccc2)c(=O)[nH]1 | 0.6 µM | 3.7 µM | 34 µM | > 1000 µM | > 1670 | – | – |
| O=c1ccn([C@H]2C[C@H](F)[C@@H](COC(c3ccccc3)(c3ccccc3)c3ccccc3)O2)c(=O)[nH]1 | – | 2 µM | – | 457 µM | – | – | – |
| OC(c1ccccc1)(c1ccccc1)c1ccccc1 [TRIPHENYLMETHANOL] | > 1000 µM | 12 µM | – | > 1000 µM | – | – | – |
| O=c1ccn(CCCO[Si](c2ccccc2)(c2ccccc2)c2ccccc2)c(=O)[nH]1 | 1.6 µM | 0.58 µM | 70 µM | 25 µM | 16 | – | – |
| O=c1ccn(CCCCCNC(c2ccccc2)(c2ccccc2)c2ccccc2)c(=O)[nH]1 | – | 2.2 µM | 39 µM | > 1000 µM | > 233 | – | – |
| CC(C)(C)[Si](C)(C)OCCOCn1ccc(=O)[nH]c1=O | 44 µM | 62 µM | > 299 µM | 63 µM | 1.4 | – | – |
| [N-]=[N+]=NCC(CCOC(c1ccccc1)(c1ccccc1)c1ccccc1)Cn1ccc(=O)[nH]c1=O (centres undefined) | 23 µM | 0.64 µM | 18 µM | > 1000 µM | – | – | – |
| CC(C)(C)OC(=O)NCC(CCn1ccc(=O)[nH]c1=O)COC(c1ccccc1)(c1ccccc1)c1ccccc1 (centres undefined) | 2.5 µM | 0.9 µM | – | > 1000 µM | – | – | – |
| O=c1ccn(COCCOC(c2ccccc2)(c2ccccc2)c2ccccc2)c(=O)[nH]1 | 0.7 µM | 0.9 µM | 39 µM | 17 µM | 25 | 96 µL/min/mg | – |
| O=c1ccn(CCCCCO[Si](c2ccccc2)(c2ccccc2)c2ccccc2)c(=O)[nH]1 | 3.8 µM | 0.38 µM | 47 µM | > 1000 µM | > 265 | – | – |
| O=c1ccn(C/C=C\COC(c2ccccc2)(c2ccccc2)c2ccccc2)c(=O)[nH]1 | 1.2 µM | 3.5 µM | 39 µM | 5.2 µM | 4 | – | – |
| O=C(OCCOCn1ccc(=O)[nH]c1=O)c1ccccc1 | 98 µM | 127 µM | 202 µM | 311 µM | 3 | – | – |
| O=c1ccn([C@H]2C[C@H](O)[C@@H](CNC(c3ccccc3)(c3ccccc3)c3ccccc3)O2)c(=O)[nH]1 | – | 4.5 µM | 44 µM | 46 µM | – | – | – |
| CC(C)(C)[Si](C)(C)OCCCn1ccc(=O)[nH]c1=O | 73 µM | > 18 µM | 192 µM | 73 µM | 1 | – | – |
| O=c1ccn(CCCCCCNC(c2ccccc2)(c2ccccc2)c2ccccc2)c(=O)[nH]1 | 1.8 µM | 1.1 µM | 40 µM | > 1000 µM | > 543 | – | – |
| CC(=O)OCC(CCn1ccc(=O)[nH]c1=O)CNC(c1ccccc1)(c1ccccc1)c1ccccc1 (centres undefined) | 1.3 µM | 2.8 µM | 37 µM | 74 µM | – | – | – |
| O=C(NCCCCn1ccc(=O)[nH]c1=O)OCc1ccccc1 | 17 µM | 15 µM | – | > 1000 µM | > 60 | – | – |
| O=c1ccn(CCCCCCOC(c2ccccc2)(c2ccccc2)c2ccccc2)c(=O)[nH]1 | 9.6 µM | 2.3 µM | 44 µM | 476 µM | 50 | – | – |
| O=c1ccn([C@H]2C[C@H](O)[C@@H](CO[Si](c3ccccc3)(c3ccccc3)c3ccccc3)O2)c(=O)[nH]1 | – | 1.1 µM | – | – | – | – | – |

| SMILES | Ki [1] | IC50 [2] | IC50 [3] | Ki [4] | Selectivity index [5] | microsomal CLint [6] | remaining at 12 s [7] |
| --- | --- | --- | --- | --- | --- | --- | --- |
| O=c1ccn(CCCCCCO[Si](c2ccccc2)(c2ccccc2)c2ccccc2)c(=O)[nH]1 | 1.7 µM | 0.46 µM | 50 µM | 383 µM | 227 | 35 µL/min/mg | < 2% |
| O=c1ccn([C@H]2C[C@H](O)[C@@H](COC(c3ccccc3)(c3ccccc3)c3ccccc3)O2)c(=O)[nH]1 | – | 6 µM | 192 µM | 18 µM | 10 | – | – |
| O=c1ccn(CCCCCCO)c(=O)[nH]1 | > 1000 µM | 19 µM | – | 636 µM | – | – | – |
| O=C(OCCCCCCn1ccc(=O)[nH]c1=O)c1ccccc1 | 32 µM | 3.4 µM | – | > 1000 µM | > 31 | – | – |
| O=c1ccn(CCCCO[Si](c2ccccc2)(c2ccccc2)c2ccccc2)c(=O)[nH]1 | 2.2 µM | 0.36 µM | – | > 1000 µM | > 446 | 69 µL/min/mg | < 2% |
| O=c1ccn(CC(CO)CCOC(c2ccccc2)(c2ccccc2)c2ccccc2)c(=O)[nH]1 (centres undefined) | 2.2 µM | 1.2 µM | 33 µM | 260 µM | – | – | – |
| O=c1ccn(CCCOC(c2ccccc2)(c2ccccc2)c2ccccc2)c(=O)[nH]1 | 87 µM | 7.5 µM | 34 µM | 313 µM | 4 | – | – |
| CC(C)(C)[Si](C)(C)O | – | > 37 µM | > 680 µM | – | – | – | – |
| O=c1ccn(CCCO)c(=O)[nH]1 | 368 µM | > 29 µM | – | > 1000 µM | > 2 | – | – |
| O[Si](c1ccccc1)(c1ccccc1)c1ccccc1 | > 1000 µM | 0.65 µM | 138 µM | > 1000 µM | – | – | – |
| O=c1ccn(CCCCO)c(=O)[nH]1 | > 1000 µM | 235 µM | – | > 1000 µM | – | – | – |
| O=C(OCCCCn1ccc(=O)[nH]c1=O)c1ccccc1 | 224 µM | 38 µM | – | 496 µM | 2 | – | – |
| O=c1ccn(CCCCCO)c(=O)[nH]1 | > 1000 µM | 20 µM | > 454 µM | > 1000 µM | – | – | – |
| O=c1ccn(CCC(CO)CNC(c2ccccc2)(c2ccccc2)c2ccccc2)c(=O)[nH]1 (centres undefined) | 0.24 µM | 3.2 µM | 55 µM | 5.7 µM | – | – | – |
| CC(C)(C)OC(=O)NCCCCn1ccc(=O)[nH]c1=O | 112 µM | 17 µM | – | > 1000 µM | > 8 | – | – |
| CC(C)(C)[Si](OCCCCCCn1ccc(=O)[nH]c1=O)(c1ccccc1)c1ccccc1 | 8.5 µM | 3.9 µM | 18 µM | > 1000 µM | > 118 | – | – |
| O=c1ccn(CCCCCOC(c2ccccc2)(c2ccccc2)c2ccccc2)c(=O)[nH]1 | 2 µM | 1.1 µM | 24 µM | > 1000 µM | > 500 | – | – |
| O=c1ccn(CCCNC(c2ccccc2)(c2ccccc2)c2ccccc2)c(=O)[nH]1 | 0.2 µM | 4.4 µM | 107 µM | 1.4 µM | 7 | – | – |
| O=C(OCCCn1ccc(=O)[nH]c1=O)c1ccccc1 | 9.2 µM | > 18 µM | – | 898 µM | > 97 | – | – |
